One block for each compound: values may come before it.
Experiments:
[1] = test system: 5XFAD mice; experiment: 6E10 immunohistochemical staining of amyloid plaques in 5XFAD mice after oral administration; assay type: in vivo, mouse; settings: 50 mg/kg/day via drinking water, 5 weeks, 4.5-month-old female 5XFAD mice, vs vehicle
Procedure: To test the in vivo efficacy of YIAD001 and YIAD002, female 5XFAD mice (n = 25) and female wildtype mice (n = 7) were assessed at the age of 4.5 months. YIAD compounds were dissolved in DMSO and diluted in drinking water to a final concentration of 50 mg/kg/day (5% DMSO, 5% Tween) for oral administration. The three compounds, YIAD001, YIAD002, and YIAD003, were freely administered via drinking water to 4.5-month-old 5XFAD mice (n = 6 for each group) for 5 weeks. As a control, 5% DMSO, 5% Tween in drinking water was provided ad libitum to littermate 5XFAD mice (n = 7) and wildtype mice (n = 7) for 5 weeks.
After the administration period, the mice were deeply anaesthetized with 4% avertin through intraperitoneal injection and transcardially perfused with 0.9% saline. Subsequently, the mice were sacrificed for brain excision. Each collected brain was divided through the mid-sagittal section; the hippocampal and cortical regions were dissected from one half and stored at −80°C for subsequent brain lysates, while the other half was immersed in 4% paraformaldehyde (pH 7.4) for 24 h and 30% sucrose for 48 h at 4°C and subsequently deep-froze at −80°C for immunohistochemistry.
Coronal hippocampal sections of 5XFAD mice brains (35 μm) were cut with a Cryostat (Leica, CM1860) and mounted onto glass slides. Antigen retrieval was performed by submerging slides in 1% SDS and unspecific binding was blocked through incubation in 20% horse serum in PBS for 1 h at RT. Aβ deposits were visualized through immunolabeling by anti-6E10 antibody (1:200 in PBS with 5% horse serum, Biolegend 803003) and detection by fluorescent secondary antibody (1:200 in PBS, IgG Alexa 488). Brain sections were additionally stained with Hoechst 33342. Fluorescent images of the brain sections were taken on a Leica DM2500 fluorescence microscope. Amyloid plaques were quantified using Image-J software (NIH).

[2] = target: T1, Aβ(1–42) (Homo sapiens, UniProt P05067); experiment: ThT fluorescence Aβ(1–42) aggregation inhibition assay; assay type: biochemical; settings: for Inhibition of Aβ(1–42) fibrillation (ThT fluorescence): compounds at 0.5, 5, 50, 500 μM co-incubated with monomeric Aβ(1–42) 25 μM, 37°C, 3 days, concentration of the printed value not stated
T1 construct: Synthesized monomeric Aβ(1–42), […]; […]; IA; made in house; host or cells: chemical synthesis (Fmoc solid phase peptide synthesis)
Procedure: (§1) ThT fluorescence was used to assess the in vitro inhibition of Aβ(1–42) and disaggregation of Aβ(1–42), Aβ(1–40), Aβ(pE3-42), recombinant tau K18, and tau repeats R1, R2, R3, R4 by YIAD compounds. In house synthetic Aβ(1–42) was dissolved in DMSO (1 mM, 100% DMSO) and diluted to 20-fold in deionized water to make 50 μM Aβ(1–42) stocks (5% DMSO). YIAD compounds were first dissolved in DMSO (100 mM, 100% DMSO) and serially diluted with deionized water to make YIAD stocks with concentrations of 1, 10, 100, and 1000 μM (10% DMSO). For the Aβ(1–42) inhibition assay, monomeric Aβ(1–42) stocks and YIAD stocks were co-incubated at 37°C for 3 days. For Aβ(1–42) disaggregation assay, monomeric Aβ(1–42) stocks were preincubated at 37°C for three days to form Aβ(1–42) aggregates, and subsequently, YIAD stocks were added for an additional 3 days. For Aβ(1-40) disaggregation assays, Aβ(1–40) (50 μM, 5% DMSO) was preincubated at 37°C for 3 days to induce aggregation, and co-incubated with YIAD001 and YIAD002 for an additional 3 days. For Aβ(pE3-42) disaggregation assays, in house synthetic Aβ(pE3-42) (50 μM, 5% DMSO) was preincubated at 37°C for 1 day and co-incubated with YIAD002 for an additional 3 days. For tau K18 disaggregation assay, recombinant tau K18 fragments (35 μM) were dissolved in PBS with 0.1 mg/mL of heparin and 100 μM of DTT, then pre-aggregated at 37°C for 3 days. Then, YIAD stocks were added to aggregated K18 fragments for an additional 3 days. For tau repeat disaggregation assays, tau repeats (R1, R2, R3, R4) (35 μM) were dissolved in PBS with 0.1 mg/mL of heparin and 100 μM of DTT, then pre-aggregated at 37°C for 1 day. Then, YIAD002 was added to aggregated repeats for an additional 3 days. Prior to fluorescence intensity measurement, ThT solution (5 μM) was prepared by dissolving ThT, purchased from Sigma-Aldrich (MO, USA) in 50 mM glycine buffer (pH 8.5). To quantify the effect of inhibition and disaggregation, 25 μL of all samples and 75 μL of ThT solution were loaded into a half-area 96-well black plate in triplicate.

[3] = target: T2, Aβ(1–42) aggregates (Homo sapiens, UniProt P05067); experiment: ThT fluorescence Aβ(1–42) disaggregation assay; assay type: biochemical; settings: for Decrease of fibrillar Aβ(1–42) aggregates (ThT fluorescence): Aβ(1–42) 25 μM pre-aggregated 37°C 3 days, compound added for additional 3 days, concentration of the printed value not stated; for EC50: pre-aggregated Aβ(1–42) 25 μM, 3 + 3 days, 37°C
T2 construct: made in house; host or cells: chemical synthesis (Fmoc solid phase peptide synthesis)
Procedure: as §1

[4] = BBB-PAMPA; assay type: in vitro ADME; settings: PAMPA, pH 7.4
Procedure: Commercially available Double-Sink PAMPA (Pion® Double sink) assay was performed using a two compartment 96-well microtiter plate and protocols specified by the manufacturer. […] Stock solutions of controls and YIAD002 were dissolved in DMSO (10 mM) and subsequently diluted to 200-fold in pION buffer (pH 7.4) to 50 μM. The donor plate of the PAMPA sandwich was loaded with 50 μM solutions, and after wetting the artificial membrane with BBB lipid solution, the acceptor plate was loaded with acceptor sink buffer. Then, the acceptor plate was placed on the donor plate and incubated at 25°C for 4 h. Compound concentration in the reference, donor, and acceptor plates were measured on a UV plate.

T1 sequence (P05067 672-713 limits assumed): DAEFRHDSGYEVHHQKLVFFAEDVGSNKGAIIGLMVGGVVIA
T2 sequence (P05067 672-713 limits assumed): as above

melting point: 169.3 to 169.9 °C
Structure (SMILES): COc1ccc(OCC(O)CN2CCCCC2)cc1.Cl (stereo not shown)

melting point: 172.1 to 172.7 °C
Structure (SMILES): Cl.OC(COc1ccc(Br)cc1)CN1CCOCC1 (stereo not shown)

melting point: 178.1 to 178.6 °C
Structure (SMILES): Cl.OC(COc1ccc(Br)cc1)CN1CCCCC1 (stereo not shown)

melting point: 176.9 to 177.7 °C
Structure (SMILES): Cl.OC(COc1ccc(Br)cc1)CN1CCCC1 (stereo not shown)

melting point: 197.9 to 198.3 °C
Structure (SMILES): CC(C)(C)c1ccc(OCC(O)CN2CCOCC2)cc1.Cl (stereo not shown)

Structure (SMILES): COc1ccc(OCC(O)CN2CCOCC2)cc1.Cl (stereo not shown) [YIAD003, 4-(2-Hydroxy-3-(4-methoxyphenoxy)propyl)morpholin-4-ium chloride]
Number of 6E10-stained plaques [1]: did not cause any change
Plaque area [1]: slight tendency of an increase
melting point: 160.2 to 160.5 °C
Activity in anti-Aβ screen ([2]; inhibitory interaction with Aβ(1–42) aggregation): inactive

Structure (SMILES): CC(C)(C)c1ccc(OCC(O)CN2CCCCC2)cc1.Cl (stereo not shown) [YIAD008, 1-(3-(4-(Tert-butyl)phenoxy)-2-hydroxypropyl)piperidin-1-ium chloride]
Decrease of fibrillar Aβ(1–42) aggregates (ThT fluorescence) [3]: 59.89%
EC50 [3]: 360 µM
melting point: 201.7 to 202.2 °C
Inhibition of Aβ(1–42) fibrillation (ThT fluorescence) [2]: 70.69%

Structure (SMILES): CC(C)(C)c1ccc(OCC(O)CN2CCCC2)cc1.Cl (stereo not shown) [YIAD010, 1-(3-(4-(Tert-butyl)phenoxy)-2-hydroxypropyl)pyrrolidin-1-ium chloride]
Decrease of fibrillar Aβ(1–42) aggregates (ThT fluorescence) [3]: 83.56%
EC50 [3]: 138 µM
melting point: 139.9 to 140.4 °C
Inhibition of Aβ(1–42) fibrillation (ThT fluorescence) [2]: 75.96%

Papp at 4 h, 50 μM [4]: 50.9 ×10⁻⁶ cm/s
Structure (SMILES): CC(=O)[C@H]1CC[C@H]2[C@@H]3CCC4=CC(=O)CC[C@]4(C)[C@H]3CC[C@]12C [progesterone, reference compound]

Effective permeability coefficient Pe ([4]; 4 h, 50 μM): 0 10^−6 cm/s
Structure (SMILES): CNC(=C[N+](=O)[O-])NCCSCc1ccc(CN(C)C)o1 [ranitidine, reference compound]
